For test [1] the following is noted: either alone or in the presence of a statin; cited from earlier work.
Test [2] concerns hamsters fed a high cholesterol diet. Description: Measurement of lipid lowering effect in hamsters fed a high cholesterol diet. It is filed as in vivo, Male Golden Syrian hamsters. Particulars: Mesocricetus auratus, po, 168 h, gavage once daily, 7 days. Summed up: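 Male Golden Syrian hamsters (6/group) on 0.5% cholesterol diet, dosed by gavage once daily in corn oil at 0.01 to 10 mg/kg; serum and liver sampled 4 h after last dose. TC, TG and LDL-C measured enzymatically; effects expressed as % suppression versus control and normal-diet groups.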

The test system of test [3] is Caco-2 cells. Description: Cholesterol absorption inhibition assay (in vitro), [14C] cholesterol mixed micelles. The test is classed as cell-based. Particulars: Homo sapiens, 24 hours, read-out: cholesterol absorption inhibitory activity; for inhibition at 10 µM: concentration of 10 μM; for inhibition at 12.5 µM: concentration of 12.5 μM. Summed up:
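Caco-2 cells cultured 2 weeks, then incubated 24 h at 37° C with [14C] cholesterol mixed micelles (oleate, phosphatidylcholine, taurocholate) plus compound at 0.5 to 25 μM final. Lipids extracted, cholesteryl ester separated by TLC and quantified by imaging plate; inhibition as background-corrected percentage of solvent control.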

Setting [4] is: read-out: serum TG lowering effect (serum TG lowering rate).
The mark [5] stands for this setting: read-out: liver TC lowering effect (suppression rate of an increase in liver TC concentration).
[6] abbreviates: read-out: serum LDL-C lowering effect (suppression rate of an increase in serum LDL-C concentration).
The mark [7] stands for this setting: read-out: serum TC lowering effect (suppression rate of an increase in serum TC concentration).

SMILES strings stand for the structures. Where two headings read alike, the source gives them in different places.

As to `O=C1[C@H](CC[C@H](O)c2ccc(F)cc2)[C@@H](c2ccc(O)cc2)N1c1ccc(F)cc1` [Ezetimibe, (3R,4S)-3-[(3S)-3-(4-fluorophenyl)-3-hydroxypropyl]-1-(4-fluorophenyl)-4-(4-hydroxyphenyl)azetidin-2-one], the LDL cholesterol-lowering effect in test [1] is on record as 15-20%.

Take `CC(=O)c1cncc(-c2ccc(N3C(=O)[C@H](SC[C@H](O)c4ccc(F)cc4)[C@H]3c3ccc(O)cc3)cc2)c1` [Example 48, (3R,4R)-3-[(2R)-2-(4-fluorophenyl)-2-hydroxyethylthio]-1-[4-(5-acetylpyridin-3-yl)phenyl]-4-(4-hydroxyphenyl)azetidin-2-one]: the inhibition in vivo at 0.1 mg/kg in test [2] (setting [4]) is not below 20%. In test [3], the inhibition at 10 µM was not below 50% and the inhibition at 12.5 µM is not below 60%.

In the case of `O=C1[C@H](SC[C@H](O)c2ccc(F)cc2)[C@@H](c2ccc(O)cc2)N1c1ccc(-c2ncc(F)cc2F)cc1` [Example 34, (3R,4R)-3-[(2R)-2-(4-fluorophenyl)-2-hydroxyethylthio]-1-[4-(3,5-difluoropyridin-2-yl)phenyl]-4-(4-hydroxyphenyl)azetidin-2-one], in test [2] (setting [4]), the inhibition in vivo at 0.1 mg/kg was not below 20%. In test [3], the inhibition at 10 µM is not below 50%.

As to `N#Cc1cncc(-c2ccc(N3C(=O)[C@H](SC[C@H](O)c4ccc(Cl)cc4)[C@H]3c3ccc(O)cc3)cc2)c1` [Example 58, 5-(4-{(3R,4R)-3-[(2R)-2-(4-chlorophenyl)-2-hydroxyethylthio]-4-(4-hydroxyphenyl)-2-oxoazetidinyl}phenyl)pyridine-3-carbonitrile], the inhibition in vivo at 0.01 mg/kg in test [2] (setting [5]) and in test [2] (setting [6]) was not below 30% throughout. Further, the inhibition in vivo at 0.1 mg/kg in test [2] (setting [4]) was not below 20%. In addition, the inhibition at 10 µM in test [3] was not below 50%. Besides, the inhibition at 12.5 µM in test [3] was not below 60%.

For the compound `O=C1[C@H](SC[C@H](O)c2ccc(Cl)cc2)[C@@H](c2ccc(O)cc2)N1c1ccc(-c2cncc(Cl)c2)cc1` [Example 87, (3R,4R)-3-[(2R)-2-(4-chlorophenyl)-2-hydroxyethylthio]-1-[4-(5-chloropyridin-3-yl)phenyl]-4-(4-hydroxyphenyl)azetidin-2-one], the inhibition in vivo at 0.01 mg/kg in test [2] (setting [5]), in test [2] (setting [6]) and in test [2] (setting [7]) was not below 30% each time. In addition, the inhibition at 12.5 µM in test [3] is not below 60%.

Consider `COc1ccncc1-c1ccc(N2C(=O)[C@H](SC[C@H](O)c3ccc(F)cc3)[C@H]2c2ccc(O)cc2)cc1` [Example 16, (3R,4R)-3-[(2R)-2-(4-fluorophenyl)-2-hydroxyethylthio]-4-(4-hydroxyphenyl)-1-[4-(4-methoxypyridin-3-yl)phenyl]azetidin-2-one], for which the inhibition in vivo at 0.01 mg/kg in test [2] (setting [5]) is not below 30%. Moreover, the inhibition in vivo at 0.1 mg/kg in test [2] (setting [7]) was not below 50%. Also, in test [3], the inhibition at 10 µM was not below 50% and the inhibition at 12.5 µM was not below 60%.

In the case of `Cc1cncc(-c2ccc(N3C(=O)[C@H](SC[C@H](O)c4ccc(Cl)cc4)[C@H]3c3ccc(O)cc3)cc2)c1` [Example 85, (3R,4R)-3-[(2R)-2-(4-chlorophenyl)-2-hydroxyethylthio]-4-(4-hydroxyphenyl)-1-[4-(5-methylpyridin-3-yl)phenyl]azetidin-2-one], the inhibition in vivo at 0.01 mg/kg in test [2] (setting [6]) and in test [2] (setting [7]) was not below 30% throughout. Besides, the inhibition at 12.5 µM in test [3] is not below 60%.

Take `COc1ccncc1-c1ccc(N2C(=O)[C@H](SC[C@H](O)c3ccc(Cl)cc3)[C@H]2c2ccc(O)cc2)cc1` [Example 61, (3R,4R)-3-[(2R)-2-(4-chlorophenyl)-2-hydroxyethylthio]-4-(4-hydroxyphenyl)-1-[4-(4-methoxypyridin-3-yl)phenyl]azetidin-2-one]: the inhibition in vivo at 0.1 mg/kg in test [2] (setting [6]) is not below 50%. For the same compound, the inhibition at 12.5 µM in test [3] was not below 60%.

In the case of `O=C1[C@H](SC[C@H](O)c2ccc(F)cc2)[C@@H](c2ccc(O)cc2)N1c1ccc(-c2cncc(Cl)c2)cc1` [Example 56, (3R,4R)-3-[(2R)-2-(4-fluorophenyl)-2-hydroxyethylthio]-1-[4-(5-chloropyridin-3-yl)phenyl]-4-(4-hydroxyphenyl)azetidin-2-one], the inhibition in vivo at 0.01 mg/kg in test [2] (setting [5]), in test [2] (setting [6]) and in test [2] (setting [7]) was not below 30% in each case. In test [2] (setting [5]), the inhibition in vivo at 0.1 mg/kg was not below 50%. The inhibition at 10 µM in test [3] is not below 50%.

(Values after patent US20100125059A1, “1-BIARYLAZETIDINONE DERIVATIVE” (Teijin Pharma Limited, priority 2007, published 2010).)
